Test results from patent US9067943B2, “[1,2,3]triazolo[4,5-D]pyrimidine derivatives” (priority 2011, dated 2015).
Read-outs that look alike come from different tables or passages of the source.

How the values were obtained:
[1] = biological target: T1, human CB2 receptors (Homo sapiens, UniProt P34972); assay: cAMP assay; type: cell-based
T1 construct: expressed in transfected cells; host or cells: CHO cells
Protocol: (§1) CHO cells expressing human CB1 or CB2 receptors are seeded 17-24 hours prior to the experiment 50.000 cells per well in a black 96 well plate with flat clear bottom (Corning Costar #3904) in DMEM (Invitrogen No. 31331), 1×HT supplement, with 10% fetal calf serum and incubated at 5% CO2 and 37° C. in a humidified incubator. The growth medium was exchanged with Krebs Ringer Bicarbonate buffer with 1 mM IBMX and incubated at 30° C. for 30 min. Compounds were added to a final assay volume of 100 μl and incubated for 30 min at 30° C. Using the cAMP-Nano-TRF detection kit the assay (Roche Diagnostics) was stopped by the addition of 50 μl lysis reagent (Tris, NaCl, 1.5% Triton X100, 2.5% NP40, 10% NaN3) and 50 μl detection solutions (20 μM mAb Alexa700-cAMP 1:1, and 48 μM Ruthenium-2-AHA-cAMP) and shaken for 2 h at room temperature. The time-resolved energy transfer is measured by a TRF reader (Evotec Technologies GmbH), equipped with a ND:YAG laser as excitation source. The plate is measured twice with the excitation at 355 nm and at the emission with a delay of 100 ns and a gate of 100 ns, total exposure time 10 s at 730 (bandwidth 30 nm) or 645 nm (bandwidth 75 nm), respectively. The FRET signal is calculated as follows: FRET=T730-Alexa730-P(T645-B645) with P=Ru730-B730/Ru645-B645, where T730 is the test well measured at 730 nM, T645 is the test well measured at 645 nm, B730 and B645 are the buffer controls at 730 nm and 645 nm, respectively. cAMP content is determined from the function of a standard curve spanning from 10 μM to 0.1 nM cAMP.
(§2) EC50 values were determined using Activity Base analysis (ID Business Solution, Limited). The EC50 values for a wide range of cannabinoid agonists generated from this assay were in agreement with the values published in the scientific literature.

[2] = biological target: T2, human CB1 receptors (Homo sapiens, UniProt P21554); assay: cAMP assay; type: cell-based
T2 construct: expressed in transfected cells; host or cells: CHO cells
T2 sequence (P21554 whole entry): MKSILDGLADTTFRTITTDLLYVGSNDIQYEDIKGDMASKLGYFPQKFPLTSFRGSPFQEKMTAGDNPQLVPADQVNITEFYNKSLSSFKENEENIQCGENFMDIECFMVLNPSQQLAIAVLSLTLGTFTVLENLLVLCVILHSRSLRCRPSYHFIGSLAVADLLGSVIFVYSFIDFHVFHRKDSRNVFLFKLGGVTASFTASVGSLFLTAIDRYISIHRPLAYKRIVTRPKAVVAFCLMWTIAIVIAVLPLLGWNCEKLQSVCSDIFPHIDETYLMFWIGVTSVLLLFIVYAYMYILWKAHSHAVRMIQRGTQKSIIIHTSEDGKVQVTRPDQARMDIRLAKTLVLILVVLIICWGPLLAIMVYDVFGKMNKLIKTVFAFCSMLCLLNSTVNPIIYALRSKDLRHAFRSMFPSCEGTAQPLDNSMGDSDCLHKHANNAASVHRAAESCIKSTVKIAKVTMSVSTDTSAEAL
Protocol: as §1, §2

T1 sequence (P34972 whole entry): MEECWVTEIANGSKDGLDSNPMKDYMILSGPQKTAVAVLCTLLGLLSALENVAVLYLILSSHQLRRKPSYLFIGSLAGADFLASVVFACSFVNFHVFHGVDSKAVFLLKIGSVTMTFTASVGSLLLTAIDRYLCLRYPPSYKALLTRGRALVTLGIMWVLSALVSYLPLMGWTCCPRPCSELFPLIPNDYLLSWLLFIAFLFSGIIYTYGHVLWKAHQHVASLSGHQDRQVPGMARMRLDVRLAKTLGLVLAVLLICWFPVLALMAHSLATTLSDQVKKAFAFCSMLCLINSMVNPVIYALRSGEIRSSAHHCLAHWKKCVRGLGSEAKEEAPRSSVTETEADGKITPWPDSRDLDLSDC

Molecule	EC50 ([1]; functional cAMP assay, CHO cells expressing human CB2, read-out: human CB2 EC50) [nM]	EC50 ([2]; functional cAMP assay, head printed human CB2 (probably human CB1), read-out: human CB2 EC50) [nM]	EC50 [1] [nM]	EC50 [2] [nM]
5-tert-Butyl-2-(1-cyclopropyl-1H-tetrazol-5-ylmethyl)-7-(2-oxa-6-aza-spiro[3.3]hept-6-yl)-2H-[1,2,3]triazolo[4,5-d]pyrimidine [Example 105]	110	> 10000		
CC(C)(C)c1nc(N2CCOCC2)c2nn(Cc3ccccc3Cl)nc2n1 [Example 1, 5-tert-Butyl-2-(2-chloro-benzyl)-7-morpholin-4-yl-2H-[1,2,3]triazolo[4,5d]pyrimidine]			3.3	> 10000
CC(C)(C)c1nc(N2CCOCC2)c2nn(Cc3ccc(F)cc3Cl)nc2n1 [Example 2, 5-tert-Butyl-2-(2-chloro-4-fluoro-benzyl)-7-morpholin-4-yl-2H-[1,2,3]triazolo[4,5-d]pyrimidine]			2.2	> 10000
CCn1nc2nc(C(C)(C)C)nc(N3CCC(F)(F)C3)c2n1 [Example 3, 5-tert-Butyl-7-(3,3-difluoro-pyrrolidin-1-yl)-2-ethyl-2H-[1,2,3]triazolo[4,5-d]pyrimidine]			18.5	> 10000
COCCn1nc2nc(C(C)(C)C)nc(N3CCC(F)(F)C3)c2n1 [Example 4, 5-tert-Butyl-7-(3,3-difluoro-pyrrolidin-1-yl)-2-(2-methoxy-ethyl)-2H-[1,2,3]triazolo[4,5-d]pyrimidine]			8	> 10000
CC(C)(C)c1nc(N2CCC(F)(F)C2)c2nn(CCO)nc2n1 [Example 5, 2-[5-tert-Butyl-7-(3,3-difluoro-pyrrolidin-1-yl)-[1,2,3]triazolo[4,5-d]pyrimidin-2-yl]-ethanol]			64.7	> 10000
CC(C)(C)c1nc(N2CCC(F)(F)C2)c2nn(CC3CCCCC3)nc2n1 [Example 6, 5-tert-Butyl-2-cyclohexylmethyl-7-(3,3-difluoro-pyrrolidin-1-yl)-2H-[1,2,3]triazolo[4,5-d]pyrimidine]			0.5	306
CC(C)(C)c1nc(N2CCC(F)(F)C2)c2nn(Cc3cccc(Cl)c3)nc2n1 [Example 7, 5-tert-Butyl-2-(3-chloro-benzyl)-7-(3,3-difluoro-pyrrolidin-1-yl)-2H-[1,2,3]triazolo[4,5-d]pyrimidine]			4.1	> 10000
CC(C)(C)c1nc(N2CCC(F)(F)C2)c2nn(Cc3ccc(Cl)cc3)nc2n1 [Example 8, 5-tert-Butyl-2-(4-chloro-benzyl)-7-(3,3-difluoro-pyrrolidin-1-yl)-2H-[1,2,3]triazolo[4,5-d]pyrimidine]			6.5	> 10000
CC(C)(C)c1nc(N2CCC(F)(F)C2)c2nn(Cc3cccc(Cl)c3Cl)nc2n1 [Example 9, 5-tert-Butyl-2-(2,3-dichloro-benzyl)-7-(3,3-difluoro-pyrrolidin-1-yl)-2H-[1,2,3]triazolo[4,5-d]pyrimidine]			3.4	> 10000
CC(C)(C)c1nc(N2CCC(F)(F)C2)c2nn(Cc3ccc(Cl)cc3Cl)nc2n1 [Example 10, 5-tert-Butyl-2-(2,4-dichloro-benzyl)-7-(3,3-difluoro-pyrrolidin-1-yl)-2H-[1,2,3]triazolo[4,5-d]pyrimidine]			4.1	> 10000
CC(C)(C)c1nc(N2CCC(F)(F)C2)c2nn(Cc3cc(Cl)ccc3Cl)nc2n1 [Example 11, 5-tert-Butyl-2-(2,5-dichloro-benzyl)-7-(3,3-difluoro-pyrrolidin-1-yl)-2H-[1,2,3]triazolo[4,5-d]pyrimidine]			1.2	> 10000
CC(C)(C)c1nc(N2CCC(F)(F)C2)c2nn(Cc3c(Cl)cccc3Cl)nc2n1 [Example 12, 5-tert-Butyl-2-(2,6-dichloro-benzyl)-7-(3,3-difluoro-pyrrolidin-1-yl)-2H-[1,2,3]triazolo[4,5-d]pyrimidine]			1.5	> 10000
CC(C)(C)c1nc(N2CCC(F)(F)C2)c2nn(Cc3ccc(F)cc3Cl)nc2n1 [Example 13, 5-tert-Butyl-2-(2-chloro-4-fluoro-benzyl)-7-(3,3-difluoro-pyrrolidin-1-yl)-2H-[1,2,3]triazolo[4,5-d]pyrimidine]			1	> 10000
CC(C)(C)c1nc(N2CCC(F)(F)C2)c2nn(Cc3c(F)cccc3Cl)nc2n1 [Example 14, 5-tert-Butyl-2-(2-chloro-6-fluoro-benzyl)-7-(3,3-difluoro-pyrrolidin-1-yl)-2H-[1,2,3]triazolo[4,5-d]pyrimidine]			0.5	65
CC(C)(C)c1nc(N2CCC(F)(F)C2)c2nn(Cc3ccccn3)nc2n1 [Example 15, 5-tert-Butyl-7-(3,3-difluoro-pyrrolidin-1-yl)-2-pyridin-2-ylmethyl-2H-[1,2,3]triazolo[4,5-d]pyrimidine]			0.7	210
CC(C)(C)c1nc(N2CCC(F)(F)C2)c2nn(Cc3cccnc3)nc2n1 [Example 16, 5-tert-Butyl-7-(3,3-difluoro-pyrrolidin-1-yl)-2-pyridin-3-ylmethyl-2H-[1,2,3]triazolo[4,5-d]pyrimidine]			3.9	> 10000
CC(C)(C)c1nc(N2CCC(F)(F)C2)c2nn(Cc3ccncc3)nc2n1 [Example 17, 5-tert-Butyl-7-(3,3-difluoro-pyrrolidin-1-yl)-2-pyridin-4-ylmethyl-2H-[1,2,3]triazolo[4,5-d]pyrimidine]			0.8	> 10000
CC(C)(C)c1nc(N2CCC(F)(F)C2)c2nn(CC(F)(F)F)nc2n1 [Example 18, 5-tert-Butyl-7-(3,3-difluoro-pyrrolidin-1-yl)-2-(2,2,2-trifluoro-ethyl)-2H-[1,2,3]triazolo[4,5-d]pyrimidine]			1.4	> 10000
CC(C)(C)c1nc(N2CCC(F)(F)C2)c2nn(Cc3cc(F)c(F)cc3Cl)nc2n1 [Example 19, 5-tert-Butyl-2-(2-chloro-4,5-difluoro-benzyl)-7-(3,3-difluoro-pyrrolidin-1-yl)-2H-[1,2,3]triazolo[4,5-d]pyrimidine]			2.2	> 10000
CC(C)(C)c1nc(N2CCC(F)(F)C2)c2nn(Cc3c(F)ccc(F)c3Cl)nc2n1 [Example 20, 5-tert-Butyl-2-(2-chloro-3,6-difluoro-benzyl)-7-(3,3-difluoro-pyrrolidin-1-yl)-2H-[1,2,3]triazolo[4,5-d]pyrimidine]			0.2	34
CC(C)(C)c1nc(N2CCC(F)(F)C2)c2nn(Cc3ccccc3Br)nc2n1 [Example 21, 2-(2-Bromo-benzyl)-5-tert-butyl-7-(3,3-difluoro-pyrrolidin-1-yl)-2H-[1,2,3]triazolo[4,5-d]pyrimidine]			0.1	183
CC(C)(C)c1nc(N2CCC(F)(F)C2)c2nn(Cc3ccccc3C(F)(F)F)nc2n1 [Example 22, 5-tert-Butyl-7-(3,3-difluoro-pyrrolidin-1-yl)-2-(2-trifluoromethyl-benzyl)-2H-[1,2,3]triazolo[4,5-d]pyrimidine]			0.2	> 10000
COc1ccccc1Cn1nc2nc(C(C)(C)C)nc(N3CCC(F)(F)C3)c2n1 [Example 23, 5-tert-Butyl-7-(3,3-difluoro-pyrrolidin-1-yl)-2-(2-methoxy-benzyl)-2H-[1,2,3]triazolo[4,5-d]pyrimidine]			0.2	86
CC(C)(C)c1nc(N2CCC(F)(F)C2)c2nn(Cc3ccccc3OC(F)(F)F)nc2n1 [Example 24, 5-tert-Butyl-7-(3,3-difluoro-pyrrolidin-1-yl)-2-(2-trifluoromethoxy-benzyl)-2H-[1,2,3]triazolo[4,5-d]pyrimidine]			0.4	> 10000
CC(C)(C)c1nc(N2CCC(F)(F)C2)c2nn(Cc3ccccc3C#N)nc2n1 [Example 25, 2-[5-tert-Butyl-7-(3,3-difluoro-pyrrolidin-1-yl)-[1,2,3]triazolo[4,5-d]pyrimidin-2-ylmethyl]-benzonitrile]			0.1	205
CC(C)(C)c1nc(N2CCC(F)(F)C2)c2nn(Cc3cccc(F)c3Cl)nc2n1 [Example 30, 5-tert-Butyl-2-(2-chloro-3-fluoro-benzyl)-7-(3,3-difluoro-pyrrolidin-1-yl)-2H-[1,2,3]triazolo[4,5-d]pyrimidine]			0.7	
CC(C)(C)c1nc(N2CCC(F)(F)C2)c2nn(Cc3cc(F)ccc3Cl)nc2n1 [Example 31, 5-tert-Butyl-2-(2-chloro-5-fluoro-benzyl)-7-(3,3-difluoro-pyrrolidin-1-yl)-2H-[1,2,3]triazolo[4,5-d]pyrimidine]			0.5	
CC(C)(C)c1nc(N2CCC(F)(F)C2)c2nn(C3COC3)nc2n1 [Example 32, 5-tert-Butyl-7-(3,3-difluoro-pyrrolidin-1-yl)-2-oxetan-3-yl-2H-[1,2,3]triazolo[4,5-d]pyrimidine]			19	
